Measured values published in ChEMBL document CHEMBL1201862, “PubChem BioAssay data set” (2004).
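Five concentrations, 48 hours, 96-well plates. GI50: concentration for 50% inhibition of growth.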 Calls of active or inactive are those of the source. No stated cut-off is given here; in the data, active = GI50 up to about 1.1 µM and inactive = higher.

Assays:
Experiment in all cases: NCI anticancer screen, dose series, 48 h
UACC-62 = tested on: UACC-62
XF498 = tested on: XF498
EKVX = tested on: EKVX
UO-31 = tested on: UO-31
HOP-92 = tested on: HOP-92
CCRF-CEM = tested on: CCRF-CEM
SK-MEL-28 = tested on: SK-MEL-28
786-0 = tested on: 786-0
HT-29 = tested on: HT-29
TK-10 = tested on: TK-10
LXFL 529 = tested on: LXFL 529
M19-MEL = tested on: M19-MEL
HCT-15 = tested on: HCT-15
OVCAR-8 = tested on: OVCAR-8
IGROV-1 = tested on: IGROV-1
MOLT-4 = tested on: MOLT-4
A549 = tested on: A549
HOP-18 = tested on: HOP-18
NCI-H23 = tested on: NCI-H23
DMS-273 = tested on: DMS-273
HCT-116 = tested on: HCT-116
SW-620 = tested on: SW-620
U-251 = tested on: U-251
K562 = tested on: K562
HOP-62 = tested on: HOP-62
SF-268 = tested on: SF-268
COLO 205 = tested on: COLO 205
NCI-H460 = tested on: NCI-H460
NCI-H522 = tested on: NCI-H522
KM-20L2 = tested on: KM-20L2
SNB-19 = tested on: SNB-19
SN12C = tested on: SN12C
HL-60 = tested on: HL-60
DLD-1 = tested on: DLD-1
RXF 393 = tested on: RXF 393
M14 = tested on: M14
SK-MEL-5 = tested on: SK-MEL-5
SK-OV-3 = tested on: SK-OV-3
DMS-114 = tested on: DMS-114
A498 = tested on: A498
RPMI-8226 = tested on: RPMI-8226
LOX IMVI = tested on: LOX IMVI
SF-539 = tested on: SF-539
ACHN = tested on: ACHN
CAKI-1 = tested on: CAKI-1
SF-295 = tested on: SF-295
OVCAR-3 = tested on: OVCAR-3
KM12 = tested on: KM12
SNB-78 = tested on: SNB-78
MCF7 = tested on: MCF7
Malme-3M = tested on: Malme-3M
SK-MEL-2 = tested on: SK-MEL-2
NCI-H226 = tested on: NCI-H226
NCI/ADR-RES = tested on: NCI/ADR-RES
OVCAR-4 = tested on: OVCAR-4
UACC-257 = tested on: UACC-257
SNB-75 = tested on: SNB-75
OVCAR-5 = tested on: OVCAR-5
HCC 2998 = tested on: HCC 2998

## Cn1nc(-c2ccccc2)c(C(=O)/C=C/c2ccccc2)c(N2CCOCC2)c1=O
UACC-62
  GI50: 19.8 µM (inactive)
XF498
  GI50: 12.7 µM (inactive)
EKVX
  GI50: > 10 µM (inactive)
UO-31
  GI50: 14.9 µM (inactive)
HOP-92
  GI50: 5.06 µM (inactive)
CCRF-CEM
  GI50: 18.8 µM (inactive)
SK-MEL-28
  GI50: > 10 µM (inactive)
786-0
  GI50: 14.2 µM (inactive)
HT-29
  GI50: 17.7 µM (inactive)
TK-10
  GI50: 32.8 µM (inactive)
LXFL 529
  GI50: 16 µM (inactive)
M19-MEL
  GI50: 23.1 µM (inactive)
HCT-15
  GI50: 16.7 µM
OVCAR-8
  GI50: 28.4 µM (inactive)
IGROV-1
  GI50: 23.4 µM (inactive)
MOLT-4
  GI50: 13.2 µM (inactive)
A549
  GI50: 20.3 µM (inactive)
HOP-18
  GI50: 28.6 µM (inactive)
NCI-H23
  GI50: 16.4 µM (inactive)
DMS-273
  GI50: 19.8 µM (inactive)
HCT-116
  GI50: 14.4 µM (inactive)
SW-620
  GI50: 28.9 µM (inactive)
U-251
  GI50: 15.4 µM (inactive)
K562
  GI50: 17.9 µM (inactive)
HOP-62
  GI50: 37.2 µM (inactive)
SF-268
  GI50: 16.9 µM (inactive)
COLO 205
  GI50: 19.5 µM (inactive)
NCI-H460
  GI50: 22.9 µM (inactive)
NCI-H522
  GI50: 12.9 µM (inactive)
KM-20L2
  GI50: 18.1 µM (inactive)
SNB-19
  GI50: > 10 µM (inactive)
SN12C
  GI50: 21.4 µM (inactive)
HL-60
  GI50: 12.8 µM (inactive)
DLD-1
  GI50: 20.4 µM (inactive)
RXF 393
  GI50: 12.6 µM (inactive)
M14
  GI50: 20.9 µM (inactive)
SK-MEL-5
  GI50: 16 µM (inactive)
SK-OV-3
  GI50: 27.6 µM (inactive)
DMS-114
  GI50: 16.8 µM (inactive)
A498
  GI50: 15.4 µM (inactive)
RPMI-8226
  GI50: 14.6 µM (inactive)
LOX IMVI
  GI50: 21.6 µM (inactive)
SF-539
  GI50: 15.9 µM (inactive)
ACHN
  GI50: 20 µM (inactive)

## O=CNc1cccc2c3c([nH]c12)CCCCCC3
UACC-62
  GI50: > 100 µM (inactive)
XF498
  GI50: > 77.1 µM (inactive)
CAKI-1
  GI50: 33 µM (inactive)
EKVX
  GI50: > 100 µM (inactive)
UO-31
  GI50: > 82.4 µM (inactive)
HOP-92
  GI50: 48 µM (inactive)
SF-295
  GI50: > 62.4 µM (inactive)
CCRF-CEM
  GI50: > 77.8 µM (inactive)
SK-MEL-28
  GI50: > 100 µM (inactive)
HT-29
  GI50: > 69.3 µM (inactive)
OVCAR-3
  GI50: > 100 µM (inactive)
KM12
  GI50: > 100 µM (inactive)
M19-MEL
  GI50: > 100 µM (inactive)
SNB-78
  GI50: > 92 µM (inactive)
MCF7
  GI50: > 100 µM (inactive)
HCT-15
  GI50: > 100 µM
OVCAR-8
  GI50: > 100 µM (inactive)
IGROV-1
  GI50: 83.2 µM (inactive)
MOLT-4
  GI50: 66.1 µM (inactive)
A549
  GI50: > 100 µM (inactive)
Malme-3M
  GI50: > 85.5 µM (inactive)
SK-MEL-2
  GI50: > 100 µM (inactive)
NCI-H226
  GI50: > 100 µM (inactive)
HOP-18
  GI50: > 100 µM (inactive)
NCI-H23
  GI50: > 100 µM (inactive)
DMS-273
  GI50: > 100 µM (inactive)
HCT-116
  GI50: > 100 µM (inactive)
SW-620
  GI50: > 100 µM (inactive)
U-251
  GI50: > 100 µM (inactive)
K562
  GI50: 67.9 µM (inactive)
HOP-62
  GI50: > 100 µM (inactive)
SF-268
  GI50: > 100 µM (inactive)
NCI/ADR-RES
  GI50: > 100 µM (inactive)
COLO 205
  GI50: > 100 µM (inactive)
NCI-H460
  GI50: > 100 µM (inactive)
NCI-H522
  GI50: > 67.1 µM (inactive)
KM-20L2
  GI50: > 100 µM (inactive)
SNB-19
  GI50: > 100 µM (inactive)
OVCAR-4
  GI50: > 100 µM (inactive)
SN12C
  GI50: > 100 µM (inactive)
HL-60
  GI50: > 100 µM (inactive)
UACC-257
  GI50: > 87.3 µM (inactive)
DLD-1
  GI50: > 100 µM (inactive)
RXF 393
  GI50: > 75.7 µM (inactive)
SNB-75
  GI50: > 93.1 µM (inactive)
SK-MEL-5
  GI50: 97.5 µM (inactive)
SK-OV-3
  GI50: > 100 µM (inactive)
DMS-114
  GI50: > 81.5 µM (inactive)
A498
  GI50: 76.6 µM (inactive)
OVCAR-5
  GI50: > 100 µM (inactive)
LOX IMVI
  GI50: > 100 µM (inactive)
SF-539
  GI50: > 100 µM (inactive)
HCC 2998
  GI50: > 100 µM (inactive)

## CCN1CC2(CO)CCC(OC)C34C5CC6C(OC)CC(O)(C5C6OC)C(O)(C(OC)C23)C14 (stereo unspecified)
UACC-62
  GI50: > 375 µM (inactive)
XF498
  GI50: > 360 µM (inactive)
CAKI-1
  GI50: > 375 µM (inactive)
EKVX
  GI50: > 59.4 µM (inactive)
UO-31
  GI50: > 375 µM (inactive)
HOP-92
  GI50: 168 µM (inactive)
SF-295
  GI50: > 375 µM (inactive)
CCRF-CEM
  GI50: > 375 µM (inactive)
SK-MEL-28
  GI50: > 375 µM (inactive)
HT-29
  GI50: > 375 µM (inactive)
OVCAR-3
  GI50: > 174 µM (inactive)
KM12
  GI50: > 375 µM (inactive)
M19-MEL
  GI50: > 375 µM (inactive)
SNB-78
  GI50: > 375 µM (inactive)
MCF7
  GI50: > 375 µM (inactive)
HCT-15
  GI50: > 375 µM
OVCAR-8
  GI50: > 375 µM (inactive)
IGROV-1
  GI50: > 375 µM (inactive)
MOLT-4
  GI50: > 375 µM (inactive)
A549
  GI50: > 375 µM (inactive)
Malme-3M
  GI50: > 375 µM (inactive)
SK-MEL-2
  GI50: > 59.4 µM (inactive)
NCI-H226
  GI50: > 375 µM (inactive)
HOP-18
  GI50: > 375 µM (inactive)
NCI-H23
  GI50: > 375 µM (inactive)
DMS-273
  GI50: > 375 µM (inactive)
HCT-116
  GI50: > 375 µM (inactive)
SW-620
  GI50: > 375 µM (inactive)
U-251
  GI50: > 305 µM (inactive)
K562
  GI50: > 375 µM (inactive)
HOP-62
  GI50: > 375 µM (inactive)
SF-268
  GI50: > 375 µM (inactive)
NCI/ADR-RES
  GI50: > 375 µM (inactive)
COLO 205
  GI50: > 375 µM (inactive)
NCI-H460
  GI50: > 375 µM (inactive)
NCI-H522
  GI50: > 375 µM (inactive)
KM-20L2
  GI50: > 197 µM (inactive)
SNB-19
  GI50: > 375 µM (inactive)
OVCAR-4
  GI50: > 375 µM (inactive)
SN12C
  GI50: > 375 µM (inactive)
HL-60
  GI50: > 375 µM (inactive)
UACC-257
  GI50: > 375 µM (inactive)
DLD-1
  GI50: 80.7 µM (inactive)
RXF 393
  GI50: > 375 µM (inactive)
SNB-75
  GI50: > 362 µM (inactive)
SK-MEL-5
  GI50: > 211 µM (inactive)
SK-OV-3
  GI50: > 375 µM (inactive)
DMS-114
  GI50: > 375 µM (inactive)
A498
  GI50: > 375 µM (inactive)
OVCAR-5
  GI50: > 177 µM (inactive)
RPMI-8226
  GI50: > 375 µM (inactive)
LOX IMVI
  GI50: > 375 µM (inactive)
SF-539
  GI50: > 375 µM (inactive)
HCC 2998
  GI50: > 375 µM (inactive)
